PubChem BioAssay AID256 (DTP/NCI, 2004)
Toxic doses and inconclusive results are not listed. Rule for the calls: active = survival T/C of 150% or more; inactive = T/C below 125% in these data.

Tested on: CD2F1 mice, L1210 leukemia ip, survival T/C
Test: NCI In Vivo Anticancer Drug Screen. Data for tumor model L1210 Leukemia (intraperitoneal) in CD2F1 (CDF1) mice
Conditions: endpoint: mean survival time, higher = longer survival
Summary of the method: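 Mice carrying a transplanted tumor received test compound or vehicle alone. The value is the measurement in the treated group divided by that in the vehicle-treated control group.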

[1] = dose: 100.0 mg/kg/injection, schedule: Q01DX009 (ip), vehicle: other
[2] = dose: 200.0 mg/kg/injection, schedule: Q01DX009 (ip), vehicle: other
[3] = dose: 100.0 mg/kg/injection, schedule: Q01DX001 (ip), vehicle: saline
[4] = dose: 100.0 mg/kg/injection, schedule: Q01DX001 (ip), vehicle: saline with Tween-80
[5] = dose: 200.0 mg/kg/injection, schedule: Q01DX001 (ip), vehicle: saline with Tween-80
[6] = dose: 400.0 mg/kg/injection, schedule: Q01DX001 (ip), vehicle: saline with Tween-80
[7] = dose: 25.0 mg/kg/injection, schedule: Q01DX009 (ip), vehicle: saline with Tween-80
[8] = dose: 12.5 mg/kg/injection, schedule: Q04DX003 (ip), vehicle: saline with Tween-80
[9] = dose: 100.0 mg/kg/injection, schedule: Q04DX003 (ip), vehicle: saline with Tween-80
[10] = dose: 50.0 mg/kg/injection, schedule: Q01DX009 (ip), vehicle: saline with Tween-80
[11] = dose: 100.0 mg/kg/injection, schedule: Q01DX009 (ip), vehicle: saline with Tween-80
[12] = dose: 200.0 mg/kg/injection, schedule: Q01DX009 (ip), vehicle: saline with Tween-80
[13] = dose: 100.0 mg/kg/injection, schedule: Q01DX001 (ip), vehicle: other
[14] = dose: 200.0 mg/kg/injection, schedule: Q01DX001 (ip), vehicle: other
[15] = dose: 400.0 mg/kg/injection, schedule: Q01DX001 (ip), vehicle: other
[16] = dose: 200.0 mg/kg/injection, schedule: Q04DX003 (ip), vehicle: saline with Tween-80
[17] = dose: 400.0 mg/kg/injection, schedule: Q04DX003 (ip), vehicle: saline with Tween-80
[18] = dose: 75.0 mg/kg/injection, schedule: Q01DX001 (ip), vehicle: saline
[19] = dose: 150.0 mg/kg/injection, schedule: Q01DX001 (ip), vehicle: saline
[20] = dose: 400.0 mg/kg/injection, schedule: Q01DX009 (ip), vehicle: saline with Tween-80

Measured: T/C

CN(C)C=NC1=NN(C)c2ncnc3c2c1cn3C1OC(CO)C(O)C1O (stereo not given)
inactive: dose: 12.5 mg/kg/injection, schedule: Q01DX009 (ip), vehicle: water 101 % of control | dose: 25.0 mg/kg/injection, schedule: Q01DX009 (ip), vehicle: water 95 % of control | dose: 50.0 mg/kg/injection, schedule: Q01DX009 (ip), vehicle: water 95 % of control | [1] 108 % of control | dose: 100.0 mg/kg/injection, schedule: Q01DX009 (ip), vehicle: water 103 % of control | [2] 104 % of control | dose: 200.0 mg/kg/injection, schedule: Q01DX009 (ip), vehicle: water 110 % of control | dose: 400.0 mg/kg/injection, schedule: Q01DX009 (ip), vehicle: other 115 % of control

C=C(Cl)C(C)(C)C
inactive: dose: 25.0 mg/kg/injection, schedule: Q01DX001 (ip), vehicle: saline 98 % of control | dose: 50.0 mg/kg/injection, schedule: Q01DX001 (ip), vehicle: saline 104 % of control | [3] 100 % of control

Cc1nnc(-c2ccccc2)c(-c2ccccc2)n1
inactive: dose: 50.0 mg/kg/injection, schedule: Q04DX002 (ip), vehicle: saline with Tween-80 103 % of control | [4] 93 % of control | dose: 100.0 mg/kg/injection, schedule: Q04DX002 (ip), vehicle: saline with Tween-80 98 % of control | [5] 95 % of control | dose: 200.0 mg/kg/injection, schedule: Q04DX002 (ip), vehicle: saline with Tween-80 95 % of control | [6] 91 % of control

CCN(CC)CCCNC1=C(Cl)C(=O)c2ccccc2C1=O
inactive: dose: 6.25 mg/kg/injection, schedule: Q01DX009 (ip), vehicle: saline with Tween-80 100 % of control | dose: 12.5 mg/kg/injection, schedule: Q01DX009 (ip), vehicle: saline with Tween-80 94 % of control | [7] 103 % of control

[Cl][Pt+2][Cl].[NH-]C(Cc1ccc(O)cc1)C(=O)O.[NH-]C(Cc1ccc(O)cc1)C(=O)O (stereo not given)
inactive: [8] 95 % of control | dose: 50.0 mg/kg/injection, schedule: Q04DX003 (ip), vehicle: saline with Tween-80 97 % of control | [9] 95 % of control

C(#[C][Ge]([C]#Cc1ccccc1)([C]#Cc1ccccc1)[C]#Cc1ccccc1)c1ccccc1
inactive: [7] 91 % of control | [10] 88 % of control | [11] 96 % of control | [12] 90 % of control

CCCCCCCCCCCCCCCC(=O)N1CCCN(C(=O)CCCCCCCCCCCCCCC)C1
inactive: dose: 75.0 mg/kg/injection, schedule: Q04DX003 (ip), vehicle: saline 89 % of control | dose: 150.0 mg/kg/injection, schedule: Q04DX003 (ip), vehicle: saline 89 % of control | dose: 300.0 mg/kg/injection, schedule: Q04DX003 (ip), vehicle: saline 103 % of control

COc1ccc(C(=O)CC(=O)NC(=O)c2ccc(OC)cc2)cc1
inactive: [13] 96 % of control | [14] 97 % of control | [15] 96 % of control

COP(=O)(OC)C(=O)c1cccc2ccccc12
inactive: [9] 95 % of control | [16] 93 % of control | [17] 96 % of control

C=C1c2ccccc2C=NN1c1ccccc1
inactive: [13] 94 % of control | [14] 88 % of control | [15] 92 % of control

COc1cccc(C2Nc3cc(Cl)ccc3S2)c1O (stereo not given)
inactive: dose: 75.0 mg/kg/injection, schedule: Q01DX009 (ip), vehicle: other 98 % of control | dose: 150.0 mg/kg/injection, schedule: Q01DX009 (ip), vehicle: other 96 % of control | dose: 300.0 mg/kg/injection, schedule: Q01DX009 (ip), vehicle: other 102 % of control

CC(C)(C)c1ccccc1O[Si](C)(C)C
inactive: [10] 105 % of control | [11] 94 % of control | [9] 97 % of control | [16] 94 % of control

COc1cc2c3c(c1O)-c1c(ccc(OC)c1OC)CC3N(C)CC2 (stereo not given)
inactive: [4] 92 % of control | [5] 105 % of control | [6] 97 % of control

CCCCCCCCOC(=O)Nc1ccc(S(=O)(=O)N(CCC)CCC)cc1
inactive: [3] 96 % of control | dose: 200.0 mg/kg/injection, schedule: Q01DX001 (ip), vehicle: saline 92 % of control | dose: 400.0 mg/kg/injection, schedule: Q01DX001 (ip), vehicle: saline 88 % of control

CC([NH-])CC(C)[NH-].[I][Pt+2][I] (stereo not given)
inactive: dose: 6.25 mg/kg/injection, schedule: Q04DX003 (ip), vehicle: saline with Tween-80 113 % of control | [8] 121 % of control

CC(=O)OCc1ccc(Cl)cc1
inactive: [9] 94 % of control | [16] 96 % of control | [17] 96 % of control

O=[N+]([O-])c1ccc(NCc2ccccc2)c([N+](=O)[O-])c1
inactive: dose: 100.0 mg/kg/injection, schedule: Q04DX003 (ip), vehicle: gum acacia 98 % of control | dose: 200.0 mg/kg/injection, schedule: Q04DX003 (ip), vehicle: gum acacia 106 % of control | dose: 400.0 mg/kg/injection, schedule: Q04DX003 (ip), vehicle: gum acacia 102 % of control

CCSc1n[nH]c(=O)nc1SC
inactive: [18] 98 % of control | [19] 96 % of control | dose: 300.0 mg/kg/injection, schedule: Q01DX001 (ip), vehicle: saline 97 % of control

CCCCCCCC(=O)OCC(=O)[C@]1(O)Cc2c(O)c3c(c(O)c2[C@@H](OC2CC(N)C(O)C(C)O2)C1)C(=O)c1c(OC)cccc1C3=O (stereo not given in full)
inactive: dose: 0.5 mg/kg/injection, schedule: Q01DX009 (ip), vehicle: water 117 % of control | dose: 8.0 mg/kg/injection, schedule: Q01DX009 (ip), vehicle: saline with Tween-80 90 % of control | dose: 20.0 mg/kg/injection, schedule: Q04DX003 (ip), vehicle: saline with Tween-80 104 % of control
active: dose: 2.0 mg/kg/injection, schedule: Q01DX009 (ip), vehicle: saline sonified 153 % of control | dose: 2.0 mg/kg/injection, schedule: Q01DX009 (ip), vehicle: saline with Tween-80 211 % of control | dose: 2.0 mg/kg/injection, schedule: Q01DX009 (ip), vehicle: water 151 % of control | dose: 3.0 mg/kg/injection, schedule: Q04DX003 (ip), vehicle: saline with Tween-80 164 % of control | dose: 20.0 mg/kg/injection, schedule: Q01DX001 (ip), vehicle: saline with Tween-80 161 % of control

Cc1ccc(S(=O)(=O)SCc2ccccc2)cc1
inactive: [1] 107 % of control | [2] 96 % of control

CC(CN=[N+]=[N-])OC(=O)C(F)(F)F (stereo not given)
inactive: dose: 37.5 mg/kg/injection, schedule: Q01DX009 (ip), vehicle: saline 94 % of control | [18] 98 % of control | dose: 75.0 mg/kg/injection, schedule: Q01DX009 (ip), vehicle: saline 94 % of control | [19] 101 % of control

CC1=NN(c2ccccc2)C(=O)C1
inactive: [11] 98 % of control | [9] 94 % of control | [12] 102 % of control | [16] 92 % of control | [20] 96 % of control | [17] 86 % of control

Cc1ccc(C(=O)C2CC(Br)C(Br)CC2C(=O)c2ccc(C)cc2)cc1 (stereo not given)
inactive: [11] 90 % of control | [9] 100 % of control | [12] 86 % of control | [16] 100 % of control | [20] 86 % of control | [17] 97 % of control

CCOC(=O)N1C(C(=O)c2ccc(C)cc2)N(C2CCCCC2)C(c2ccccc2)N1C(=O)OCC (stereo not given)
inactive: [11] 90 % of control | [9] 97 % of control | [12] 93 % of control | [16] 92 % of control | [20] 90 % of control | [17] 93 % of control

O=C(C=C(C(F)(F)F)C(F)(F)F)c1ccc(Cl)c2ccccc12
inactive: [9] 105 % of control

CC(=O)c1cc(-c2ccc(C)cc2)nc2c(C)cc(C)cc12
inactive: [9] 92 % of control | [16] 86 % of control | [17] 92 % of control

C/C(=N/NC(=O)c1ccccc1)c1ccc(O)cc1
inactive: [11] 96 % of control | [9] 96 % of control | [12] 97 % of control | [16] 98 % of control | [20] 91 % of control | [17] 100 % of control

Nn1c(=O)[nH][nH]c1=O
inactive: [11] 96 % of control | [9] 93 % of control | [12] 96 % of control | [16] 93 % of control | [20] 98 % of control | [17] 98 % of control

COC(=O)C12CCC(C)(C)CC1C1=CCC3C4(C)CCC(OC(C)=O)CC4CCC3(C)C1(C)CC2 (stereo not given)
inactive: [4] 93 % of control | [11] 100 % of control | [5] 92 % of control | [12] 100 % of control | [6] 97 % of control | [20] 109 % of control

Oc1ccc2ccccc2c1Cl
inactive: [9] 104 % of control | [16] 112 % of control | [17] 108 % of control
